The values that follow come from ChEMBL document CHEMBL1151975, “Isolation, structure, and antibacterial activities of lucensimycins D-G, discovered from Streptomyces lucensis MA7349 using an antisense strategy” (2009).

Converted amounts (≈) assume the structure as drawn. The source made the active and inactive calls.

For one assay, the system named is Streptococcus pneumoniae. In words: Antimicrobial activity against Streptococcus pneumoniae CL 2883. In kind it is functional.
The subject of assay [1] is Staphylococcus aureus. In words: Antimicrobial activity against Staphylococcus aureus Smith at 250 ug/ml. Format: functional, organism-based.
For another assay, the system named is Escherichia coli. In words: Antimicrobial activity against Escherichia coli at 250 ug/ml. In kind it is functional, organism-based.
A further assay deals with Enterococcus faecalis. Nature of the assay: Antimicrobial activity against Enterococcus faecalis at 250 ug/ml. Format: functional, organism-based.
In a further assay the test system is Bacillus subtilis. In words: Antimicrobial activity against Bacillus subtilis at 250 ug/ml. Format: functional, organism-based.
The next assay deals with Haemophilus influenzae. Nature of the assay: Antimicrobial activity against Haemophilus influenzae at 250 ug/ml. Format: functional, organism-based.
For a further assay, the system named is Candida albicans. Nature of the assay: Antimicrobial activity against Candida albicans at 250 ug/ml. In kind it is functional, organism-based.
In assay [2] the test system is Staphylococcus aureus. Nature of the assay: Antimicrobial activity against Staphylococcus aureus EP167 at 0.5 mg/ml by two-plate assay. Format: functional, organism-based.
Another assay relates to Streptomyces noursei. In words: Antimicrobial activity against Streptomyces albulus MJ202-72F3. In kind it is functional.
Assay [3] has as its system Staphylococcus aureus. In words: Antimicrobial activity against Staphylococcus aureus Smith. Format: functional.
The subject of assay [4] is Staphylococcus aureus. Nature of the assay: Antimicrobial activity against Staphylococcus aureus bearing antisense rpsD gene by two-plate assay. In kind it is functional.

As to `CC(=O)N[C@H](CSC[C@@H]1OC(=O)[C@@]2(C1=O)C(=O)[C@@]1(C)[C@@H](C=C[C@H]3[C@H](O)[C@@H](C)[C@H](OC(C)=O)C[C@@H]31)C[C@H]2/C=C/C=C/C=C/C(=O)O)C(=O)N[C@H]1[C@@H](O[C@@H]2[C@@H](O)[C@H](O)[C@@H](O)[C@H](O)[C@@H]2O)O[C@@H](CO)[C@@H](O)[C@@H]1O`, the outcome in the assay on Streptococcus pneumoniae, in the assay with Staphylococcus aureus [1], in the assay with Escherichia coli, with Enterococcus faecalis, in the assay with Bacillus subtilis and with Haemophilus influenzae was inactive. Moreover, the outcome in the assay with Candida albicans was inactive. For the same molecule, the outcome with Staphylococcus aureus [2] was Active.
`CCC(O)C(C)/C=C/C=C/C(O)CC1C=CC2CC(C)CC(C)C2C1(C)C(=O)C1=C(O)C(O)NC1=O` (stereo not drawn) [DELAMINOMYCIN A] registered an MIC in the assay with Streptomyces noursei of 25 µg/mL (≈ 49.8 µM).
Turning to `CCC(O)C(C)/C=C/C=C/C(O)CC1C=CC2CC(C)CC(C)C2C1(C)C(=O)C1=C(O)C(OC)NC1=O` (stereo not drawn) [DELAMINOMYCIN B], it took 25 µg/mL (≈ 48.5 µM) to inhibit growth with Streptomyces noursei (MIC).
`CC(=O)N[C@H](CSC[C@H]1OC(=O)[C@@]2(C1=O)C(=O)[C@@]1(C)[C@@H](C=C[C@H]3[C@H](O)[C@@H](C)[C@H](OC(C)=O)C[C@@H]31)C[C@H]2/C=C/C=C/C=C/C(=O)O)C(=O)O` [LUCENSIMYCIN E]: the MIC in the assay with Staphylococcus aureus [3] was found to be 32 µg/mL (≈ 46.5 µM); against Streptococcus pneumoniae, 8 µg/mL (≈ 11.6 µM). For the same molecule, the “inhibition zone (IZ)” value in the assay on Staphylococcus aureus [4] is 12 mm.
As for `C=C1OC(=O)[C@@]2(C1=O)C(=O)[C@@]1(C)[C@@H](C=C[C@H]3[C@H](O)[C@@H](C)[C@H](OC(C)=O)C[C@@H]31)C[C@H]2/C=C/C=C/C=C/C(=O)O` [LUCENSIMYCIN A], the result with Streptococcus pneumoniae, in the assay on Staphylococcus aureus [1], in the assay with Escherichia coli, in the assay with Enterococcus faecalis, in the assay with Bacillus subtilis and in the assay on Haemophilus influenzae was inactive. Moreover, in the assay on Candida albicans, the outcome was inactive. In addition, the “inhibition zone (IZ)” value in the assay on Staphylococcus aureus [4] was found to be 12 mm. In addition, the outcome in the assay on Staphylococcus aureus [2] was Active.
For the molecule `C=C(OC(=O)[C@@H]1C(=O)[C@@]2(C)[C@@H](C=C[C@H]3[C@H](O)[C@@H](C)[C@H](OC(C)=O)C[C@@H]32)C[C@H]1/C=C/C=C/C=C/C(=O)O)C(=O)O`, the result in the assay with Streptococcus pneumoniae, in the assay with Staphylococcus aureus [1], with Escherichia coli, in the assay on Enterococcus faecalis, with Bacillus subtilis and with Haemophilus influenzae was inactive. Besides, in the assay on Candida albicans, the result was inactive.
As to `CCC(O)C(C)/C=C/C=C/C(O)CC1C=CC2CC(C)CC(C)C2C1(C)C(=O)C1=C(O)CNC1=O` (stereo not drawn) [DELAMINOMYCIN C], inhibition of growth in the assay with Streptomyces noursei (MIC) required 25 µg/mL (≈ 51.5 µM).
For the molecule `CC(=O)O[C@@H]1C[C@H]2[C@@H](C=C[C@H]3C[C@@H](/C=C/C=C/C=C/C(=O)O)[C@@]4(C(=O)O[C@@H](CO)C4=O)C(=O)[C@@]32C)[C@H](O)[C@H]1C`, the outcome with Streptococcus pneumoniae, with Staphylococcus aureus [1], in the assay on Escherichia coli, with Enterococcus faecalis, in the assay with Bacillus subtilis and with Haemophilus influenzae was inactive. In addition, the outcome in the assay with Candida albicans was inactive.
`CC(=O)N[C@H](CSC[C@@H]1OC(=O)[C@@]2(C1=O)C(=O)[C@@]1(C)[C@@H](C=C[C@H]3[C@H](O)[C@@H](C)[C@H](OC(C)=O)C[C@@H]31)C[C@H]2/C=C/C=C/C=C/C(=O)O)C(=O)O` [LUCENSIMYCIN D] came in with an MIC in the assay with Streptococcus pneumoniae of 250 µg/mL (≈ 363 µM). Moreover, the result in the assay on Staphylococcus aureus [1] was inactive. The “inhibition zone (IZ)” value in the assay with Staphylococcus aureus [4] was found to be 12 mm.
Take `CC(=O)N[C@H](CSC[C@H]1OC(=O)[C@@]2(C1=O)C(=O)[C@@]1(C)[C@@H](C=C[C@H]3[C@H](O)[C@@H](C)[C@H](OC(C)=O)C[C@@H]31)C[C@H]2/C=C/C=C/C=C/C(=O)O)C(=O)N[C@H]1[C@@H](O[C@@H]2[C@@H](O)[C@H](O)[C@@H](O)[C@H](O)[C@@H]2O)O[C@@H](CO)[C@@H](O)[C@@H]1O`: the outcome in the assay on Streptococcus pneumoniae, with Staphylococcus aureus [1], in the assay on Escherichia coli, in the assay on Enterococcus faecalis, with Bacillus subtilis and in the assay on Haemophilus influenzae was inactive. Moreover, the result in the assay with Candida albicans was inactive. The outcome with Staphylococcus aureus [2] was Active.

What is called MIC is the smallest concentration in the dilution series that meets the test's criterion for growth inhibition.
